Measurements published in patent US12102685B2, “Immodulator peptides covalently modified with small molecules” (priority 2020, dated 2024).
Peptide text beside a SMILES is read from it.

Key:
[1] = Strength of binding to iron, plate assay (x2E b); settings: 1 ug/well peptide complexed to Alexa-488-streptavidin; ferric iron
Outline: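 Streptavidin-Alexa-488-complexed peptides, some C-terminally extended by three amino acids, were added at 1 ug/well in PBS to ferric iron-charged NTA-coated plates for 60 min at room temperature. Plates were washed and read by fluorescence (485/525 nm).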

[2] = Iron-binding competition assay with labeled IM3AVD (x2E d); settings: labeled IM3AVD plus 10x unlabeled peptide; no competing peptide = 100
Procedure: Experiments were conducted by the procedure described above. Ferric iron-charged NTA-coated 96-well plates were used as described. 1 ug/well immodulator peptide complexed to Alexa-488-labeled streptavidin in PBS buffer was added (60 min at room temperature). The plate was washed and counted in a standard fluorometer (excitation/emission: 485/525 nm). The results (fluorescence) show improved iron-binding by the three peptides extended C-terminally by the AVD, (dA)VD, and FVS tripeptides. **p<0.01 vs IM3 control IM3: 200±29; IM4: 45±37**; IM5: 130±77; IM3AVD: 434±29**; IM3dAVD: 418±28**; IM3FVS: 371±33** • (c) Competition assay. The same procedure was used as the preceding experiment, except that 375 ng/well labeled IM3 peptide was used, plus 10× of the indicated unlabeled peptide. ‘No competing peptide’ control value was set to 100. *p<0.05 vs “no peptide” control Competing Peptide/Fluorescence • None: 100±38; IM4: 125±26; IM3: 63±27*; IM5: 40±14*; IM3AVD: 10±28* • (d) Competition assay. The same procedure was used as the preceding experiment, except that labeled IM3AVD peptide was used. **p<0.01 vs “no competing peptide” control • None: 100±9; IM4: 144±44; IM3: 35±16**; IM5: 30±19**; IM3AVD: 9±19** • (e) The same procedure was used as the preceding experiment, except that each peptide was labeled with Alexa-488-labeled streptavidin in PBS buffer and used separately. Binding to IM3 was set to =100. *p<0.05, **p<0.01 vs IM3 control. (Labeled Peptide/Fluorescence) IM1: 1.8±0.4**; IM2: 3.0±1.8**; IM3: 100.0±16.8; IM4: 7.2±1.7*; IM5: 86.7±6.4; IM6: 85.9±14.9; IM3AVD:137.7±11.8*; IM3dAVD:147.4±22.9*; IM3FVS: 101.5±10.5.

[3] = Binding to heparin-agarose spin column (x3D); settings: 1 ug SA488-labelled peptide
Procedure: 1 ug Streptavidin-Alexa 488 conjugate (SA488)-labelled IM peptide in PBS buffer was loaded on a spin column packed with 0.2 ml bed volume heparin-agarose (G-Biosciences, St. Louis, MO). The column was centrifuged for 2 min at 2,000 G and the flow-through was collected. The column was then washed with 0.3 ml 1% BSA in PBS buffer and the column spin repeated. Flowthrough and wash were pooled and duplicate 20 uL aliquots counted in a standard fluorometer (excitation/emission 485/525 nm). Results are expressed as percentage of input counts that bound the heparin-agarose column, versus flowthrough. Percent counts bound to heparin-agarose resin are shown below. IM3, IM5 and IM6 peptides bind heparin-agarose in this assay.

[4] = FITC-PI(4)P1 binding to plate-bound peptide with calcium (x9A)
Procedure: Immodulator peptides IM1, IM3 and IM5 (400 ng/well) in PBS were bound to streptavidin-coated 96-well plates at room temperature for 60 minutes, in the presence or absence of 500 uM calcium chloride. Each well also received 200 ng cold PPI plus 10 ng FITC-labeled PI(4,5)P2 or PI(4)P1. The tables below show the relative fluorescence (with/without calcium background) expressed as a percentage of the highest binder, FITC-PI(4,5)P2+cold PI(3,5)P2, which was 2,496 fluorescence units. Background binding without calcium was, in all cases, 200-300 fluorescence units.

[5] = Binding to Echelon PPI Arrays (x9B); design: key: 0=no binding; 1=low binding; 2=medium binding; 3=high binding; settings: 100 pmol PPI spot, colorimetric readout
Source text: Binding of immodulator peptides to Echelon PPI Arrays. PPI arrays were purchased from Echelon Biosciences (Sal Lake City, UT) and used according to the manufacturer's recommendations. Colorimetric readout from each 100 pmol PPI spot in the array is expressed as 0=no binding, 1=low binding, 2=medium binding and 3=high binding. […] In addition, IM3 and IM5 show slight binding to PI(3,4,5)P3.

[6] = tested on: COL1 in HFF-1 dermal fibroblasts; assay: Collagen-1 ELISA in HFF-1 dermal fibroblasts (x11A); type: cell-based; settings: peptide 2 uM, 72 hour; control (buffer) = 100

For `N=C(N)NCCC[C@H](NC(=O)CNC(=O)[C@H](CCCCN)NC(=O)[C@H](CO)NC(=O)[C@@H]1CCCN1C(=O)[C@H](CCCNC(=N)N)NC(=O)[C@H](CS)NC(=O)[C@H](CCC(N)=O)NC(=O)[C@H](CCCCN)NC(=O)[C@H](CCCCN)NC(=O)[C@H](CCCCN)NC(=O)[C@H](Cc1ccc(O)cc1)NC(=O)[C@H](Cc1ccccc1)NC(=O)CNC(=O)[C@H](CCCCN)NC(=O)[C@@H](N)CCCCN)C(=O)N[C@@H](CCCCN)C(=O)N[C@@H](CCCNC(=N)N)C(=O)NCC(=O)N[C@@H](Cc1ccccc1)C(=O)N[C@@H](CS)C(=O)N[C@@H](Cc1c[nH]c2ccccc12)C(=O)O` [IM3] (H-KKGFYKKKQCRPSKGRKRGFCW-OH; N-terminus and C-terminus assumed), the “fluorescence (iron binding)” value [1] was 200±29, the “fluorescence of labeled IM3AVD with competing peptide” value [2] was 35±16 and the “Percent Flowthrough” value [3] was 2.3%. The Percent retained [3] was 97.7%, the “relative fluorescence, FITC-PI(4)P1 bound” value ([4]; cold PPI: 3,4,5-P3) was 1.2 percentage of the highest binder and the “relative fluorescence, FITC-PI(4)P1 bound” value ([4]; cold PPI: 3,4-P2) was 2.4 percentage of the highest binder. The “relative fluorescence, FITC-PI(4)P1 bound” value ([4]; cold PPI: 3,5-P2) was 5.6 percentage of the highest binder, the “relative fluorescence, FITC-PI(4)P1 bound” value ([4]; cold PPI: 3-P1) was 2.5 percentage of the highest binder and the “relative fluorescence, FITC-PI(4)P1 bound” value ([4]; cold PPI: 4,5-P2) was 0.1 percentage of the highest binder. The “relative fluorescence, FITC-PI(4)P1 bound” value ([4]; cold PPI: 4-P1) was 2.4 percentage of the highest binder, the “relative fluorescence, FITC-PI(4)P1 bound” value ([4]; cold PPI: 5-P1) was 1.9 percentage of the highest binder and the “relative fluorescence, FITC-PI(4)P1 bound” value ([4]; cold PPI: None) was 2.5 percentage of the highest binder. The “binding to PI spot” value [5] was 0, the “binding to PI(3,4,5)P3 spot” value [5] was 1 and the “binding to PI(4)P1 spot” value [5] was 0. For the same molecule, the “binding to PI(4,5)P2 spot” value [5] was 3 and the “COL1 immunoreactivity in supernatant” value [6] was 101.
